Where two headings read alike, the source gives them in different places.
Legend:
[1] = SIN-1-induced ROS scavenging assay; conditions: 20 µM; SIN-1 as ROS generator; DCFH-DA probe
Excerpt: The scavenging activities of the BABT derivatives 1–14 against ROS and peroxynitrite (ONOO^−) were investigated because the antioxidant activities of the compounds may modulate melanogenesis. To measure the ROS scavenging activities of BABT derivatives, 2′,7′-dichlorodihydrofluorescein diacetate (DCFH-DA) and 3-morpholinosydnonimine (SIN-1) were used as a fluorogenic probe and ROS generator, respectively. The reaction of DCFH-DA with esterase produces 2′,7′-dichlorodihydrofluorescein (DCFH), which generates the fluorescent compound 2′,7′-dichlorofluorescein (DCF) by reacting with ROS produced by SIN-1. Therefore, ROS scavenging activities were determined by measuring the DCF fluorescence remaining after the BABT derivatives scavenged the ROS generated by SIN-1. […] BABT derivatives and Trolox, the positive control, were used at a concentration of 20 µM.
The ROS scavenging activities of the BABT derivatives were measured using an oxidant-sensitive fluorescent probe. Derivatives or Trolox (10 µL; final concentration: 20 µM) were seeded in a black 96-well plate. Then, 10 µL of SIN-1 (10 µM) was added to induce radical species generation and mixed with 180 µL of sodium phosphate buffer (pH 7.4) containing 12.5 µM DCF-DA and 600 units of esterase. Fluorescence intensity was measured at emission and excitation wavelengths of 535 and 485 nm, respectively, using a fluorescence microplate reader (Berthold Technologies GmbH & Co., Wien, Austria). Trolox was used as the positive control.

[2] = ABTS radical scavenging assay; conditions: test samples 100 µM; 2 min in the dark
Experimental: An antioxidant assay using ABTS is also commonly used to assess the antioxidant activities of compounds. Donation of one electron from ABTS to potassium persulfate generates the ABTS radical cation. An ABTS radical scavenging activity assay was performed using 100 µM of BABT derivatives or Trolox (a positive reference control) by mixing test samples with ABTS radical cations obtained from a reaction of potassium persulfate and ABTS. ABTS radical scavenging activity was assessed by measuring the optical density at 734 nm after leaving the test sample–ABTS radical cation mixture in the dark for 2 min.
According to a previously described method, with minor modifications, the ABTS radical scavenging activities of BABT derivatives 1–14 were assessed. Briefly, an ABTS radical solution was prepared by mixing 10 mL of aqueous ABTS solution (7 mM) with 10 mL of potassium persulfate aqueous solution (2.45 mM), and the mixture was kept for 11–15 h in the dark at room temperature until the absorbance remained constant. Prior to the antioxidant assay experiments, the ABTS radical solution was diluted with water to adjust the absorbance at 734 nm to 0.70 ± 0.02. A 10 µL aliquot of BABT derivatives or Trolox at a concentration of 1000 µM was added to 90 µL of ABTS+ free radical solution in each well of a 96-well plate and incubated for 2 min in the dark at ambient temperature. The absorbance of each well was measured at 734 nm using a microplate reader (VersaMax; Molecular Devices). The ABTS+ radical scavenging activities of BABT derivatives were compared to those of Trolox. All experiments were carried out independently, thrice.

[3] = DPPH radical scavenging assay; conditions: test samples 500 µM; DPPH 0.18 mM; 30 min in the dark
Experimental: DPPH is a light-sensitive compound containing free radicals. The DPPH assay is one of the most common methods for evaluating the antioxidant activity of a compound. The effects of BABT derivatives on DPPH radical scavenging activities were evaluated using L-ascorbic acid as a positive reference control. DPPH radical scavenging activities were measured after leaving the mixed samples (test samples of 500 µM plus DPPH solution of 0.18 mM) in the dark for 30 min. To determine the radical scavenging activities, the absorbance of the mixed samples was measured at 517 nm.
According to previously described methods, with minor modifications, the DPPH radical scavenging activities of BABT derivatives 1–14 were measured. A DPPH (0.2 mM) and methanol solution (180 µL) was mixed with 20 µL of a DMSO solution containing 5 mM BABT derivative, or with 20 µL of an aqueous solution of 5 mM L-ascorbic acid, in each well of a 96-well plate and kept at ambient temperature in the dark for 30 min. The optical density of each well was measured at 517 nm using a microplate reader (VersaMax; Molecular Devices). L-Ascorbic acid was used as a positive reference control, and the DPPH radical scavenging abilities of BABT derivatives were compared with those of L-ascorbic acid. All experiments were performed independently, thrice.

[4] = tested on: B16F10 cells; experiment: Cell viability (EZ-Cytox assay); type: cell-based, murine; conditions: 0, 1, 2, 5, 10, 20 µM
Experimental: Before these experiments were performed, the influence of these derivatives on cytotoxicity in B16F10 cells was examined to determine their optimal concentration range for B16F10 cell experiments. The cytotoxicity of derivatives 7 and 8 at six concentrations (0, 1, 2, 5, 10, and 20 µM) was assessed using the EZ-Cytox assay.
Cytotoxicity assays in B16F10 cells were performed using the EZ-Cytox solution (EZ-3000, DoGenBio, Seoul, Republic of Korea). Briefly, B16F10 cells were seeded at a density of 1 × 10^4 cells per well and cultured at 37 °C in a 5% CO2 atmosphere for 24 h. […] Then, the EZ-Cytox solution (10 μL aliquot) was added to each well. After 2 h of incubation at 37 °C, the optical density of each well was measured at 450 nm using a microplate reader (VersaMax; Molecular Devices).

[5] = molecular target: mushroom tyrosinase; experiment: Mushroom tyrosinase inhibition assay; type: biochemical; conditions: for IC50: mean ± SEM of three experiments
Experimental: As mushroom tyrosinase is commercially available and relatively cheap, it is used as a tool for the identification of novel tyrosinase inhibitors. Here, we examined the tyrosinase inhibitory activities of the 14 BABT derivatives against mushroom tyrosinase in the presence of L-tyrosine or L-dopa as substrates.
Mushroom tyrosinase inhibitory activities of BABT derivatives were determined as described previously, with minor modifications. L-Tyrosine and L-dopa were used as substrates to evaluate the enzyme activity. […] Assay mixtures were incubated at 37 °C for 30 min, and dopachrome amounts synthesized were determined by measuring the optical density of each well at 475 nm using a microplate reader (VersaMax; Molecular Devices, Sunnyvale, CA, USA).

[6] = molecular target: T1, mushroom tyrosinase (Agaricus bisporus, UniProt C7FF04); experiment: Kinetic studies of mushroom tyrosinase inhibition (Lineweaver–Burk and Dixon plots); type: biochemical; conditions: substrate L-dopa
T1 construct: purchased
Experimental: Kinetic studies using Lineweaver–Burk plots were performed using four different concentrations (0, 0.5, 1, and 2 µM) of the test derivatives (7 and 8) and five different concentrations (0.5, 1, 2, 4, and 8 mM for 7, and 1, 2, 4, 8, and 16 mM for 8) of L-dopa.
Lineweaver–Burk plots for 7 and 8 were transformed into the corresponding Dixon plots to determine their inhibition constant (Ki) values for the mushroom tyrosinase–inhibitor complex. […] The Ki values for the mushroom tyrosinase–inhibitor complex were obtained from the x-axis value of each convergence point.
Lineweaver–Burk plots of derivatives 7 and 8 were obtained in the presence of L-dopa as the substrate. Briefly, 20 µL aliquots of mushroom tyrosinase aqueous solution (200 units/mL) were added to each well of a 96-well plate containing 10 µL BABT derivative (7 or 8) DMSO solution (final concentrations: 0, 0.5, 1, and 2 µM) and 170 µL of an aqueous solution containing L-dopa (final concentrations: 1.0, 2.0, 4.0, 8.0, and 16.0 mM) and sodium phosphate buffer (pH 6.5, 17.2 mM). The initial rate of dopachrome formation was determined by examining the changes in absorbance at a wavelength of 475 nm (ΔOD475/min) using a microplate reader (VersaMax; Molecular Devices).

[7] = molecular target: mushroom tyrosinase; set-up: method as in PMID 26235587; conditions: in the presence of L-tyrosine; cited from earlier work
[8] = Peroxynitrite scavenging assay; conditions: 20 µM; SIN-1 as generator; DHR123 probe
Experimental: The effects of the BABT derivatives on peroxynitrite scavenging activities were also examined using SIN-1 as an RNS generator and dihydrorhodamine (DHR123) as an ROS indicator. DHR123 was converted to fluorescent rhodamine 123 by peroxynitrite generated by SIN-1. Therefore, the peroxynitrite scavenging activities of 1–14 were assessed by measuring the fluorescence of rhodamine 123. BABT derivatives and penicillamine, the positive control, were used at a concentration of 20 µM.
The peroxynitrite scavenging activities of the BABT derivatives were assessed using the method developed by Kooy, involving the monitoring of highly fluorescent rhodamine 123, which was rapidly produced from non-fluorescent DHR123 in the presence of peroxynitrite. Rhodamine buffer (pH 7.4) was composed of 50 mM sodium phosphate dibasic, 50 mM sodium phosphate monobasic, 90 mM sodium chloride, 5 mM potassium chloride, and 100 µM DTPA. A 10 µL aliquot of BABT derivatives or PCA (final concentration: 20 µM) was seeded in a black 96-well plate. Then, 10 µL of SIN-1 (10 µM) was added to induce radical species generation and mixed with 180 µL of rhodamine buffer. Fluorescence intensity was measured at emission and excitation wavelengths of 535 and 485 nm, respectively, using a fluorescence microplate reader (Berthold Technologies GmbH & Co.). PCA was used as the positive control.

[9] = substrate L-tyrosine, read-out: IC50 (µM) L-Tyrosine

T1 sequence (C7FF04 1-392): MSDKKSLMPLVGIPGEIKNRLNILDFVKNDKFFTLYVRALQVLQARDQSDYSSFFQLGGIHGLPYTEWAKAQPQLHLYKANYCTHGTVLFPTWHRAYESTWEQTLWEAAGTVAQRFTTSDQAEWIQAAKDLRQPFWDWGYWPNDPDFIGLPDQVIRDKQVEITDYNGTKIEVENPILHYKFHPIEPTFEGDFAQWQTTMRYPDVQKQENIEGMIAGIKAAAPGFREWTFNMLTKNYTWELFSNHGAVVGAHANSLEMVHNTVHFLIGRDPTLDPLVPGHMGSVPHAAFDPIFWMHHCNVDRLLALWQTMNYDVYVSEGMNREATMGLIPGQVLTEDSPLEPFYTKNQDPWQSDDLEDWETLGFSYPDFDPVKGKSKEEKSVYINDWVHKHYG

SMILES | ROS scavenging activity (in words) [1] | ABTS radical scavenging activity, % inhibition [2] | DPPH radical scavenging activity, % inhibition [3] | IC50 [5, 9] | other results
Cc1c(C)c2c(c(C)c1O)CCC(C)(C(=O)O)O2 (stereo not drawn) [Trolox, reference compound] | reduced the ROS levels enhanced by SIN-1 | 99% |  |  | 
COc1ccc(/C=C2\SC(NCc3ccccc3)=NC2=O)cc1O [Compound 7, (Z)-2-(benzylamino)-5-(3-hydroxy-4-methoxybenzylidene)thiazol-4(5H)-one] | moderate ROS scavenging activities |  | 47% | 10 ± 0.9 µM | cytotoxicity ([4]; 72 h): showed cytotoxicity at a concentration of 20 µM; cytotoxicity ([4]; up to 48 h): not cytotoxic at all concentrations; IC50 ([5]; substrate L-dopa, read-out: IC50 (µM) L-Dopa): 10.3 ± 0.24 µM; fold stronger tyrosinase inhibitory activity than derivative 5 ([5]; substrate L-tyrosine): 14.8 fold; Ki ([6]; Dixon plots, read-out: inhibition constant (Ki) for the mushroom tyrosinase–inhibitor complex): 3.1 µM; mode of inhibition ([6]; Lineweaver–Burk plots): competitive inhibitors
O=C1N=C(Nc2nc3ccccc3s2)S/C1=C\c1ccc(O)cc1O [MHY2081] |  |  |  |  | IC50 [7]: 1800 nM
O=C1N=C(NCc2ccccc2)S/C1=C\c1ccc(O)c(O)c1 [Compound 9, (Z)-2-(benzylamino)-5-(3,4-dihydroxybenzylidene)thiazol-4(5H)-one] | strongly reduced the ROS levels enhanced by SIN-1 | 87% | 89% | > 300 µM | peroxynitrite scavenging activity (in words) [8]: strong ROS and peroxynitrite scavenging activities; fold more potent than kojic acid ([5]; substrate L-dopa): 2 fold
